Experimental data: PMC10364322, “Evaluation of chronic drug-induced electrophysiological and cytotoxic effects using human-induced pluripotent stem cell-derived cardiomyocytes (hiPSC-CMs)” (Frontiers in Pharmacology, 2023)
Read-outs that look alike come from different tables or passages of the source.

System: hiPSC-CMs (iCell-Cardiomyocytes^2)
Method in brief: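 Monolayers of hiPSC-CMs on fibronectin-coated MEA plates, 50 K/well, kept at 37°C, 5% CO2; compounds added in 0.1% final DMSO after 5-min baseline. Field potential and impedance parameters expressed as mean ± SD percent change from baseline; arrhythmic events noted; cytotoxicity fluorescence normalized to DMSO, Kruskal-Wallis.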

For `COc1cccc2c1C(=O)c1c(O)c3c(c(O)c1C2=O)C[C@@](O)(C(=O)CO)C[C@@H]3O[C@H]1C[C@H](N)[C@H](O)[C@H](C)O1` [Doxorubicin], the “BR (beating rate), % change from baseline” value (“BR (beating rate), % change” for short) (0.1 µM, 2h) was 7±3%, the “Beating below threshold, number of observations/total well numbers” value (0.1 µM, 2h) was 0/5 and the “Cessation of beating, number of observations/total well numbers” value (0.1 µM, 2h) was 0/5. The “EAD, number of observations/total well numbers” value (0.1 µM, 2h) was 0/5, the “FPD (field-potential duration), % change from baseline” value (0.1 µM, 2h) was -0.9±3.5% and the “FPDc (field-potential duration corrected by beat-rate), % change from baseline” value (from here on “FPDc … % change from baseline”) (0.1 µM, 2h) was 1.2±2.7%. For the same compound, the “Flat T-wave-like, number of observations/total well numbers” value (0.1 µM, 2h) was 0/5, the “BR (beating rate), % change” value (0.1 µM, 24h) was 41±12 % and the “Beating below threshold, number of observations/total well numbers” value (0.1 µM, 24h) was 0/5. For the same compound, the “Cessation of beating, number of observations/total well numbers” value (0.1 µM, 24h) was 0/5, the “EAD, number of observations/total well numbers” value (0.1 µM, 24h) was 0/5 and the “FPD (field-potential duration), % change from baseline” value (0.1 µM, 24h) was -18.2±8.6 %. The “FPDc … % change from baseline” value (0.1 µM, 24h) was -8.8±6.9 %, the “Flat T-wave-like, number of observations/total well numbers” value (0.1 µM, 24h) was 0/5 and the “BR (beating rate), % change” value (0.1 µM, 48h) was 26±8 %. The “Beating below threshold, number of observations/total well numbers” value (0.1 µM, 48h) was 0/5, the “Cessation of beating, number of observations/total well numbers” value (0.1 µM, 48h) was 0/5 and the “EAD, number of observations/total well numbers” value (0.1 µM, 48h) was 0/5. For the same compound, the “FPD (field-potential duration), % change from baseline” value (0.1 µM, 48h) was -24.4±9.8 %, the “FPDc … % change from baseline” value (0.1 µM, 48h) was -18.8±8.7 % and the “Flat T-wave-like, number of observations/total well numbers” value (0.1 µM, 48h) was 0/5. The “BR (beating rate), % change” value (0.1 µM, 72h) was 22±6 %, the “Beating below threshold, number of observations/total well numbers” value (0.1 µM, 72h) was 0/5 and the “Cessation of beating, number of observations/total well numbers” value (0.1 µM, 72h) was 0/5. The “EAD, number of observations/total well numbers” value (0.1 µM, 72h) was 0/5, the “FPD (field-potential duration), % change from baseline” value (0.1 µM, 72h) was -25±8.7 % and the “FPDc … % change from baseline” value (0.1 µM, 72h) was -20.4±8.9 %. The “Flat T-wave-like, number of observations/total well numbers” value (0.1 µM, 72h) was 1/5, the “BR (beating rate), % change” value (0.1 µM, 96h) was -7±13% and the “Beating below threshold, number of observations/total well numbers” value (0.1 µM, 96h) was 0/5. The “Cessation of beating, number of observations/total well numbers” value (0.1 µM, 96h) was 0/5, the “EAD, number of observations/total well numbers” value (0.1 µM, 96h) was 0/5 and the “FPD (field-potential duration), % change from baseline” value (0.1 µM, 96h) was -11.7±0.4 %. For the same compound, the “FPDc … % change from baseline” value (0.1 µM, 96h) was -16.2±0.1 %, the “Flat T-wave-like, number of observations/total well numbers” value (0.1 µM, 96h) was 3/5 and the “time point from which cessation of beating occurred in all wells” value (from here on “time point from which cessation”) (0.3 µM) was 48 h. For the same compound, the “BR (beating rate), % change” value (0.3 µM, 2h) was 2±2%, the “Beating below threshold, number of observations/total well numbers” value (0.3 µM, 2h) was 0/5 and the “Cessation of beating, number of observations/total well numbers” value (0.3 µM, 2h) was 0/5. The “EAD, number of observations/total well numbers” value (0.3 µM, 2h) was 0/5, the “FPD (field-potential duration), % change from baseline” value (0.3 µM, 2h) was 2.2±0.8% and the “FPDc … % change from baseline” value (0.3 µM, 2h) was 2.8±1.1%. The “Flat T-wave-like, number of observations/total well numbers” value (0.3 µM, 2h) was 0/5, the “BR (beating rate), % change” value (0.3 µM, 24h) was 24±8 % and the “Beating below threshold, number of observations/total well numbers” value (0.3 µM, 24h) was 0/5. For the same compound, the “Cessation of beating, number of observations/total well numbers” value (0.3 µM, 24h) was 0/5, the “EAD, number of observations/total well numbers” value (0.3 µM, 24h) was 0/5 and the “FPD (field-potential duration), % change from baseline” value (0.3 µM, 24h) was -21±2.9 %. For the same compound, the “FPDc … % change from baseline” value (0.3 µM, 24h) was -14.6±1.7 %, the “Flat T-wave-like, number of observations/total well numbers” value (0.3 µM, 24h) was 2/5 and the “BR (beating rate), % change” value (0.3 µM, 48h) was 40±8 %. The “Beating below threshold, number of observations/total well numbers” value (0.3 µM, 48h) was 0/5, the “Cessation of beating, number of observations/total well numbers” value (0.3 µM, 48h) was 2/5 and the “EAD, number of observations/total well numbers” value (0.3 µM, 48h) was 0/5. The “Flat T-wave-like, number of observations/total well numbers” value (0.3 µM, 48h) was 3/5, the “BR (beating rate), % change” value (0.3 µM, 72h) was 39±0 % and the “Beating below threshold, number of observations/total well numbers” value (0.3 µM, 72h) was 0/5. The “Cessation of beating, number of observations/total well numbers” value (0.3 µM, 72h) was 4/5, the “EAD, number of observations/total well numbers” value (0.3 µM, 72h) was 0/5 and the “Flat T-wave-like, number of observations/total well numbers” value (0.3 µM, 72h) was 1/5. For the same compound, the “Beating below threshold, number of observations/total well numbers” value (0.3 µM, 96h) was 0/5, the “Cessation of beating, number of observations/total well numbers” value (0.3 µM, 96h) was 5/5 and the “EAD, number of observations/total well numbers” value (0.3 µM, 96h) was 0/5. The “Flat T-wave-like, number of observations/total well numbers” value (0.3 µM, 96h) was 0/5, the “time point from which cessation” value (1 µM) was 48 h and the “BR (beating rate), % change” value (1 µM, 2h) was 3±2%. For the same compound, the “Beating below threshold, number of observations/total well numbers” value (1 µM, 2h) was 0/5, the “Cessation of beating, number of observations/total well numbers” value (1 µM, 2h) was 0/5 and the “EAD, number of observations/total well numbers” value (1 µM, 2h) was 0/5. For the same compound, the “FPD (field-potential duration), % change from baseline” value (1 µM, 2h) was 2.8±3.4%, the “FPDc … % change from baseline” value (1 µM, 2h) was 4.2±3% and the “Flat T-wave-like, number of observations/total well numbers” value (1 µM, 2h) was 0/5. For the same compound, the “BR (beating rate), % change” value (1 µM, 24h) was 68±21 %, the “Beating below threshold, number of observations/total well numbers” value (1 µM, 24h) was 0/5 and the “Cessation of beating, number of observations/total well numbers” value (1 µM, 24h) was 0/5. The “EAD, number of observations/total well numbers” value (1 µM, 24h) was 0/5, the “Flat T-wave-like, number of observations/total well numbers” value (1 µM, 24h) was 4/5 and the “Beating below threshold, number of observations/total well numbers” value (1 µM, 48h) was 0/5. For the same compound, the “Cessation of beating, number of observations/total well numbers” value (1 µM, 48h) was 5/5, the “EAD, number of observations/total well numbers” value (1 µM, 48h) was 0/5 and the “Flat T-wave-like, number of observations/total well numbers” value (1 µM, 48h) was 0/5. The “Beating below threshold, number of observations/total well numbers” value (1 µM, 72h) was 0/5, the “Cessation of beating, number of observations/total well numbers” value (1 µM, 72h) was 5/5 and the “EAD, number of observations/total well numbers” value (1 µM, 72h) was 0/5. The “Flat T-wave-like, number of observations/total well numbers” value (1 µM, 72h) was 0/5, the “Beating below threshold, number of observations/total well numbers” value (1 µM, 96h) was 0/5 and the “Cessation of beating, number of observations/total well numbers” value (1 µM, 96h) was 5/5. The “EAD, number of observations/total well numbers” value (1 µM, 96h) was 0/5, the “Flat T-wave-like, number of observations/total well numbers” value (1 µM, 96h) was 0/5 and the “time point from which cessation” value (3 µM) was 24 h. For the same compound, the “Beating below threshold, number of observations/total well numbers” value (3 µM, 72h) was 0/5, the “Cessation of beating, number of observations/total well numbers” value (3 µM, 72h) was 5/5 and the “EAD, number of observations/total well numbers” value (3 µM, 72h) was 0/5. The “Flat T-wave-like, number of observations/total well numbers” value (3 µM, 72h) was 0/5, the “Beating below threshold, number of observations/total well numbers” value (3 µM, 96h) was 0/5 and the “Cessation of beating, number of observations/total well numbers” value (3 µM, 96h) was 5/5. The “EAD, number of observations/total well numbers” value (3 µM, 96h) was 0/5, the “Flat T-wave-like, number of observations/total well numbers” value (3 µM, 96h) was 0/5 and the “BR (beating rate), % change” value (3 µM, 2h) was 1±2%. For the same compound, the “Beating below threshold, number of observations/total well numbers” value (3 µM, 2h) was 0/5, the “Cessation of beating, number of observations/total well numbers” value (3 µM, 2h) was 0/5 and the “EAD, number of observations/total well numbers” value (3 µM, 2h) was 0/5. The “FPD (field-potential duration), % change from baseline” value (3 µM, 2h) was 3.9±2.4%, the “FPDc … % change from baseline” value (3 µM, 2h) was 4.3±2.4% and the “Flat T-wave-like, number of observations/total well numbers” value (3 µM, 2h) was 0/5. For the same compound, the “BR (beating rate), % change” value (3 µM, 24h) was 41±36 %, the “Beating below threshold, number of observations/total well numbers” value (3 µM, 24h) was 0/5 and the “Cessation of beating, number of observations/total well numbers” value (3 µM, 24h) was 1/5. The “EAD, number of observations/total well numbers” value (3 µM, 24h) was 0/5, the “FPD (field-potential duration), % change from baseline” value (3 µM, 24h) was -15.8±3.8 % and the “FPDc … % change from baseline” value (3 µM, 24h) was -2.9±4.7 %. For the same compound, the “Flat T-wave-like, number of observations/total well numbers” value (3 µM, 24h) was 2/5, the “Beating below threshold, number of observations/total well numbers” value (3 µM, 48h) was 0/5 and the “Cessation of beating, number of observations/total well numbers” value (3 µM, 48h) was 5/5. The “EAD, number of observations/total well numbers” value (3 µM, 48h) was 0/5 and the “Flat T-wave-like, number of observations/total well numbers” value (3 µM, 48h) was 0/5.
